The target in one test is T1, GPR120 (Homo sapiens, UniProt Q5NUL3).
T1 construct: beta-galactosidase enzyme fragment (ProLink)
T1 sequence (Q5NUL3 1-377 isoform Q5NUL3-1): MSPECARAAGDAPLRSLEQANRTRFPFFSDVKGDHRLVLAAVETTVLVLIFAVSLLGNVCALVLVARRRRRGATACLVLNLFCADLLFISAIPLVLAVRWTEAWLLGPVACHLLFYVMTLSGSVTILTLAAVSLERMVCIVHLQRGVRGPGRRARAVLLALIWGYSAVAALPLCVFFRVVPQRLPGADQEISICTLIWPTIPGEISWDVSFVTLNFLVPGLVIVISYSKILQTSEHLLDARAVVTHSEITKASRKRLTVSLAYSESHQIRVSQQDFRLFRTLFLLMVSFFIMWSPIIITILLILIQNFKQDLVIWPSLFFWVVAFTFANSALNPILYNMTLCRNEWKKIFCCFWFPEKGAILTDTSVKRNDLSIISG
As to the kind of experiment: PathHunter beta-Arrestin GPCR assay. The format is cell-based. The text has this:
FIGS. 57A and 57B are graphs showing GPR120 activation by 9-PAHSA and GPR120 knockdown in 3T3-L1 adipocytes. Specifically, FIG. 57A depicts a GPR120 activity assay using the PathHunter® eXpress GPR120L β-Arrestin GPCR Assay (DiscoverX). n=3 wells per condition. FIG. 57B is a bar graph showing validation of GPR120 knockdown in differentiated 3T3-L1 adipocytes. 3T3-L1 adipocytes (Day 8 post differentiation) were transfected with non-targeting (control) siRNA or three individual GPR120 targeting siRNA's individually or in combination. 48 h post-transfection GPR120 mRNA levels were measured by qPCR and normalized to TBP mRNA levels. n=3 wells per condition.
For the experiments summarized in FIGS. 43-45, the fragment based GPCR assay from DiscoveRx (PATHHUNTER® β-Arrestin assay) was used to as per manufacturer's instructions to determine activation of specific GPCRs as indicated in FIGS. 43-45.

Test [1] relates to STC-1 cells. Put plainly: GLP-1 secretion from STC-1 enteroendocrine cells (ELISA). Type of test: cell-based. The method, then:
For the experiments summarized in FIG. 41 STC-1 cells were incubated with vehicle (DMSO), 9-PAHSA, 5-PAHSA or 9-OAHSA at the indicated concentrations or lineolic acid (100 uM) as a positive control. Media was harvested and GLP-1 was measured by ELISA.
For the experiments summarized in FIG. 42, the same protocol as described for FIG. 41 was used, except in this experiment a time course was performed. For both FIG. 41 and FIG. 42, for GLP-1 secretion STC1 cells were washed 3× with serum free culture media followed by stimulation with FAHFAs or vehicle at the indicated concentrations and timepoints. Levels of active GLP-1 were measured by ELISA.

Test [2] concerns STC-1 cells. As to the kind of experiment: ERK phosphorylation in STC-1 cells (immunoblot). The format is cell-based. To be noted: 15 minutes stimulation. As to the method: For the experiments summarized in FIG. 40, STC-1 cells were incubated with 9-PAHSA, 5-PAHSA or 9-OAHSA at the indicated concentrations. Cells were harvested and lysed and proteins were separated by SDS PAGE and transferred onto nitrocellulose filters. The phosphorylation of ERK and the amount of total ERK was determined by immunoblotting with antibodies specific for total or phosphor-ERK. DMSO was the control. For ERK phosphorylation, cells were serum deprived overnight and stimulated with FAHFAs or vehicle as indicated for 15 minutes followed by lysis in RIPA buffer and analysis by SDS-PAGE

The test system of test [3] is STC-1 cells. Put plainly: Calcium flux (FURA2) in STC-1 cells. Type of test: cell-based. To be noted: 100 uM, no extracellular Ca2+. The method, then: For the experiments summarized in FIG. 39 the method is: Cells grown on collagen coated glass slides were preloaded with the calcium indicator, FURA2, for 60 minutes. Buffer containing either FAHFAs or vehicle was incubated with cells for a period of 3 minutes followed by washout with buffer alone. FURA2 fluorescence, an indicator of Calcium mobilization, was monitored continuously before and during the addition of compounds and throughout the washout period. Results were analyzed with metamorph software. Calcium Flux in STC-1 (intestinal enteroendocrine) cells in the absence of extracellular calcium (calcium free buffer). Ligands were injected after 3 minutes and washed out after an additional 3 minutes. The data presented is the average fold change in Fura2 fluorescence for 10 individual STC-1 cells in the same field.
DMSO control had no effect. Top panel is linoleic acid, a positive control. Middle panel 9-PAHSA (100 uM). Bottom panel 5-PAHSA (100 μM). These experiments were done in the absence of extracellular calcium.

Test [4] concerns insulin-resistant high-fat fed mice. Put plainly: Insulin tolerance test in HFD-fed mice. Type of test: in vivo, mouse. The settings on record: for baseline glycemia: 2.5-3 hours after administration; for area above the insulin response curve / insulin sensitivity: ITT. As to the method:
(§1) Area under the curve (AUC), *p<0.05 compared to vehicle. […] Area above the curve (AAC). *p<0.05 compared to vehicle. […] Area under the curve (AUC). *p<0.05 compared to vehicle. FIG. 53D is a bar graph showing serum insulin levels 5 min post glucose challenge in chow-fed mice gavaged with 5-PAHSA or vehicle (glucose values shown in FIG. 53C). n=12-14 per group, *p<0.05 compared to vehicle by t-test. FIG. 53E is a bar graph showing serum GLP-1 levels 5 min post glucose challenge from chow-fed mice gavaged with 5-PAHSA or vehicle (glucose levels in FIG. 53C). n=12-14 per group, *p<0.05 compared to vehicle by t-test. FIG. 53F are bar graphs showing insulin secretion from primary human islets from two independent donors. Islets were incubated with low (2.5 mM) or high (20 mM) glucose ex vivo in the presence of 5-PAHSA (20 μM) or vehicle control. n=100 islets per condition, *p<0.05 compared to control 2.5 mM glucose, ^#p<0.05 compared to respective treatments at 2.5 mM glucose, ^$p<0.05 compared to control or diluents at 20 mM glucose by t-test. FIG. 53G are bar graphs showing active GLP-1 secretion from STC-1 cells in response to 5-PAHSA (5-P), 9-PAHSA (9P), […] (LA), GW9508 (GW) or vehicle control (DMSO). n=4 per group, *p<0.05 compared to vehicle by t-test. All data are mean±s.e.m. See also FIG. 56.

Test [5] has the same test system. Put plainly: Oral glucose tolerance test in HFD-fed mice. Type of test: in vivo, mouse. The settings on record: for basal glycemia: 30 minutes after oral administration; for area under the glucose excursion curve / glucose tolerance: OGTT, gavage 30 min prior. The method, then: as §1

From patent US10604473B2, “Lipids that increase insulin sensitivity and methods of using the same” (Beth Israel Deaconess Medical Center, Inc., priority 2013, dated 2020) come the findings set out here.

Each structure is given as a SMILES string. Entries after “also recorded” stand apart in the source; their conditions may differ.

As to `CCCCCCCCCCCCCCCC(=O)OC(CCCCCCCCC)CCCCCCCC(=O)O` (stereo not drawn) [9-PAHSA, palmitoyl-9-hydroxystearic acid], the GPR120 activation entry at GPR120 was “dose-dependently activated GPR120; also recorded: is a ligand for the GPCR, GPR120; also recorded: activate GPR120”. Also, in the test with STC-1 cells [1], the GLP-1 secretion result is listed as “rapidly stimulated GLP-1 secretion; also recorded: induce GLP-1 secretion”; the “time course for GLP-1 secretion” value is “very rapid and sustained”. Further, in the test with STC-1 cells [2], the ERK phosphorylation result is on record as “induce ERK phosphorylation”. In the test with STC-1 cells [3], the “Ca2+ flux from intracellular stores” value is reported as “induce Ca2+ flux from intracellular stores”. In addition, in test [4], the baseline glycemia entry is reported as “lowered baseline glycemia”, the “area above the insulin response curve” value was “more than a doubling” and the insulin sensitivity entry is “improved insulin sensitivity”. Further, in test [5], the basal glycemia result is listed as “lowered basal glycemia”, the “area under the glucose excursion curve” value is “reduced area under the glucose excursion curve” and the glucose tolerance result is on record as “improved glucose tolerance”.

Take `CCCCCCCCCCCCCCCC(=O)OC(CCCCCCCCCCCCC)CCCC(=O)O` (stereo not drawn) [5-PAHSA]: the GPR120 activation result on GPR120 is listed as “dose-dependently activated GPR120; also recorded: activate GPR120”. Moreover, the GLP-1 secretion result in the test on STC-1 cells [1] was “rapidly stimulated GLP-1 secretion; also recorded: induce GLP-1 secretion”. Moreover, in the test with STC-1 cells [2], the ERK phosphorylation result is recorded as “induce ERK phosphorylation”. Moreover, the “Ca2+ flux from intracellular stores” value in the test on STC-1 cells [3] is “induce Ca2+ flux from intracellular stores”. For the same molecule, in test [4], the baseline glycemia result was “lowered baseline glycemia”, the “area above the insulin response curve” value is given as “more than a doubling” and the insulin sensitivity result is listed as “improved insulin sensitivity”. In test [5], the basal glycemia result is “lowered basal glycemia”, the “area under the glucose excursion curve” value is given as “reduced area under the glucose excursion curve” and the glucose tolerance entry is given as “improved glucose tolerance”.
